Kd data for 13 compounds are collected here from patent US20250049970A1, “DLL3 TARGETING PEPTIDES AND CONSTRUCTS THEREOF” (MARIANA ONCOLOGY INC., priority 2023, published 2025).

As usually defined, the Kd is the equilibrium constant for the complex coming apart.

*1 amine or outer side, *2 acyl side, *3 side chain or, on linkers, in order; H or OH if unused. Where a SMILES comes first, the peptide text is derived from it. Bridges are numbered along the chain shown (N, C = ends). [ ]: non-standard residue; d: D form. The star is where a group is joined. ξ: configuration not given here. X9 = CSCC[C@H](NC(=O)c1ccc(CNC(=O)CN2CCN(CC(=O)O)CCN(CC(=O)O)CCN(CC(=O)O)CC2)cc1)C(=O)N[C@H](C(=O)N[C@@H](CCCCN*)C(=O)O)C(C)C; X7 = O=C(O)CN1CCN(CC(=O)O)CCN(CC(=O)N[C@H]2CC[C@H](CC(=O)*)CC2)CCN(CC(=O)O)CC1; Ala(piperidin-4-yl) = O=C([C@H](CC1CCN([*:3])CC1)N[*:1])[*:2]; DOTA = O=C(O)CN1CCN(CC(=O)O)CCN(CC(=O)*)CCN(CC(=O)O)CC1; Ala(morpholin-4-yl) = N[C@@H](CN1CCOCC1)C(=O)O; 2Nal = N[C@@H](Cc1ccc2ccccc2c1)C(=O)O; tBuAla = CC(C)(C)C[C@H](N)C(=O)O; NMeD = CN[C@@H](CC(=O)O)C(=O)O; NMeN = CN[C@@H](CC(N)=O)C(=O)O; Chg = N[C@H](C(=O)O)C1CCCCC1; ξIle = CC[C@H](C)C(N)C(=O)O; Dab = NCC[C@H](N)C(=O)O; Nva = CCC[C@H](N)C(=O)O; CH2 = C([*:1])[*:2]

This experiment concerns the target T1, DLL3 (Homo sapiens, UniProt Q9NYJ7).
T1 sequence (Q9NYJ7 27-618): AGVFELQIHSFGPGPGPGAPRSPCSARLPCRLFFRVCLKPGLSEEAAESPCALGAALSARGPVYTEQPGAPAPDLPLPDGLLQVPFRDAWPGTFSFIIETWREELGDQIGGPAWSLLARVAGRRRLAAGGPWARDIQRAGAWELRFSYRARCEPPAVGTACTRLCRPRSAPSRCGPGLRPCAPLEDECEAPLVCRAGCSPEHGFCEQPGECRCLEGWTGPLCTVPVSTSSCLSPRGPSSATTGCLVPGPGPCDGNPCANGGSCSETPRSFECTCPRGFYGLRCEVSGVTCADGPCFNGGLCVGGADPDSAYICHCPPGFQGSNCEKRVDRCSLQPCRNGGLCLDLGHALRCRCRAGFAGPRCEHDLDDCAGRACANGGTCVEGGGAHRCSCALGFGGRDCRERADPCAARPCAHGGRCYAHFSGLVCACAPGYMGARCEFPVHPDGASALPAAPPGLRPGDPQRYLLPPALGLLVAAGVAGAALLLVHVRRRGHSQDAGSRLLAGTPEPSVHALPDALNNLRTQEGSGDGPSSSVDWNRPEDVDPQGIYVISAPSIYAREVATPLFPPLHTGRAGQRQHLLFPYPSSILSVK
The experiment is described as follows: SPR KD, biotinylated human DLL3 on streptavidin chip (Table 8). The arrangement: biotin (biotinylated). As to conditions: biotinylated human DLL3 on streptavidin sensor chip, 25° C., 1:1 binding model; read-out: SPR KD. An excerpt:
Biotinylated target ligand human DLL3 was immobilized on a streptavidin sensor chip. A reference surface was set up for nonspecific binding and refractive index changes. […] Sensorgram curves were fitted with 1:1 binding model, and affinity and kinetic parameters were obtained using Biacore Insight evaluation 4.0. software.

As to `CC(=O)NCCCC[C@@H](NC(=O)[C@@H]1CCCN1C(=O)[C@H](Cc1c[nH]c2ccccc12)NC(=O)[C@@H]1CSCSC[C@H](NC(=O)[C@H](CC(C)(C)C)NC(=O)[C@@H](NC(=O)[C@H](Cc2c[nH]c3ccccc23)NC(C)=O)[C@@H](C)O)C(=O)N[C@@H](CC2CCNCC2)C(=O)N[C@@H](CC(N)=O)C(=O)N[C@@H](Cc2ccc3ccccc3c2)C(=O)N[C@@H](CCCCNC(=O)CN2CCN(CC(=O)O)CCN(CC(=O)O)CCN(CC(=O)O)CC2)C(=O)N[C@@H](CC(=O)O)C(=O)N1)C(=O)O` [compound 439, Ac-W-T-(t-Bu-Ala)-C(1)-[3-(4-piperidinyl)-Ala]-N-(2Nal)-Lys(DOTA)-D-C(1)-W-P-[D-Lys(Ac)]-COOH] (Ac-WT[tBuAla]C[Ala(piperidin-4-yl)]N[2Nal]K(DOTA)DCWP[dK](Ac)-OH; linker 4-10 via CH2), the dissociation constant Kd is below 1 nM.
Take `CC[C@H](C)[C@H](NC(=O)[C@@H](NC(=O)[C@H](Cc1c[nH]c2ccccc12)NC(C)=O)[C@@H](C)O)C(=O)N[C@H]1CSSC[C@@H](C(=O)N[C@@H](Cc2c[nH]c3ccccc23)C(=O)N2CCC[C@H]2C(N)=O)NC(=O)[C@H](CC(=O)O)NC(=O)[C@H](Cc2c[nH]cn2)NC(=O)[C@H](Cc2ccc3ccccc3c2)NC(=O)[C@H](CCCCNC(=O)CN2CCN(CC(=O)O)CCN(CC(=O)O)CCN(CC(=O)O)CC2)NC(=O)[C@H](CC(N)=O)NC1=O` [compound 250, Ac-W-T-I-C(3)-N-Lys(DOTA)-(2Nal)-H-D-C(3)-W-P-CONH2] (Ac-WTICNK(DOTA)[2Nal]HDCWP-NH2; disulfide 4-10): the equilibrium dissociation constant (Kd) is 1 to 10 nM.
In the case of `CC[C@H](C)C(NC(=O)[C@@H](NC(=O)[C@H](Cc1c[nH]c2ccccc12)NC(C)=O)[C@@H](C)O)C(=O)N[C@H]1CSSC[C@@H](C(=O)N[C@@H](Cc2c[nH]c3ccccc23)C(=O)N2CCC[C@H]2C(=O)N[C@H](CCCCNC(=O)CN2CCN(CC(=O)O)CCN(CC(=O)O)CCN(CC(=O)O)CC2)C(N)=O)NC(=O)[C@H](CC(=O)O)NC(=O)[C@H](Cc2cnc[nH]2)NC(=O)[C@H](Cc2ccc3ccccc3c2)NC(=O)[C@H](CCCCNC(=O)CN2CCN(CC(=O)O)CCN(CC(=O)O)CCN(CC(=O)O)CC2)NC(=O)[C@H](CC(N)=O)NC1=O` (stereo partly drawn) [compound 248, Ac-W-T-I-C(3)-N-Lys(DOTA)-(2Nal)-H-D-C(3)-W-P-[D-Lys(DOTA)]-NH2] (Ac-WT[ξIle]CNK(DOTA)[2Nal]HDCWP[dK](DOTA)-NH2; disulfide 4-10), the equilibrium dissociation constant (Kd) was below 1 nM.
Consider `CC[C@H](C)[C@H](NC(=O)[C@@H](NC(=O)[C@H](Cc1c[nH]c2ccccc12)NC(C)=O)[C@@H](C)O)C(=O)N[C@H]1CCC(=O)NCC[C@@H](C(=O)N[C@@H](Cc2c[nH]c3ccccc23)C(=O)N2CCC[C@H]2C(N)=O)NC(=O)[C@H](CC(=O)O)NC(=O)[C@H](Cc2c[nH]cn2)NC(=O)[C@H](Cc2c[nH]c3ccccc23)NC(=O)[C@H](CC(N)=O)NC(=O)[C@H](CC(N)=O)NC1=O` [compound 71] (Ac-WTIENNWHD[Dab]WP-NH2; lactam 4-10), for which the dissociation constant Kd was 100 to 300 nM.
As to `CCC[C@H](NC(C)=O)C(=O)N[C@@H](Cc1c[nH]c2ccccc12)C(=O)N[C@H](C(=O)N[C@H](C(=O)N[C@H]1CSSC[C@@H](C(=O)N[C@@H](Cc2c[nH]c3ccccc23)C(=O)N2CCC[C@H]2C(N)=O)NC(=O)[C@H](CC(=O)O)NC(=O)[C@H](Cc2cnc[nH]2)NC(=O)[C@H](Cc2c[nH]c3ccccc23)NC(=O)[C@H](CC(N)=O)NC(=O)[C@H](CC(N)=O)NC1=O)[C@@H](C)CC)[C@@H](C)O` [compound 440, Ac-(L-Nva)-W-T-I-C(3)-N-N-W-H-D-C(3)-W-P-CONH2] (Ac-[Nva]WTICNNWHDCWP-NH2; disulfide 5-11), the Kd was in the range of 10 to 100 nM.
Consider `CC[C@H](C)[C@H](NC(=O)[C@@H](NC(=O)[C@H](Cc1c[nH]c2ccccc12)NC(=O)[C@H](CCSC)NC(C)=O)[C@@H](C)O)C(=O)N[C@H]1CSSC[C@@H](C(=O)N[C@@H](Cc2c[nH]c3ccccc23)C(=O)N2CCC[C@H]2C(N)=O)NC(=O)[C@H](CC(=O)O)NC(=O)[C@H](Cc2cnc[nH]2)NC(=O)[C@H](Cc2c[nH]c3ccccc23)NC(=O)[C@H](CC(N)=O)NC(=O)[C@H](CC(N)=O)NC1=O` [compound 1] (Ac-MWTICNNWHDCWP-NH2; disulfide 5-11), for which the Kd fell in the range of 1 to 10 nM.
With `CSCC[C@H](NC(=O)c1ccc(CNC(=O)CN2CCN(CC(=O)O)CCN(CC(=O)O)CCN(CC(=O)O)CC2)cc1)C(=O)N[C@H](C(=O)N[C@@H](CCCCNC(=O)CC[C@@H]1NC(=O)[C@H](Cc2ccc3ccccc3c2)NC(=O)[C@H](CC(N)=O)NC(=O)[C@H](CC2CCNCC2)NC(=O)[C@@H](NC(=O)[C@@H](NC(=O)[C@@H](NC(=O)[C@H](Cc2c[nH]c3ccccc23)NC(C)=O)[C@@H](C)O)C2CCCCC2)CSCSC[C@@H](C(=O)N[C@@H](Cc2c[nH]c3ccccc23)C(=O)N2CCC[C@H]2C(N)=O)NC(=O)[C@H](CC(=O)O)NC1=O)C(=O)O)C(C)C` [compound 425] (Ac-WT[Chg]C[Ala(piperidin-4-yl)]N[2Nal]E(X9)DCWP-NH2; linker 4-10 via CH2), the dissociation constant Kd was below 1 nM.
In the case of `CC[C@H](C)[C@H](NC(=O)[C@@H](NC(=O)[C@H](Cc1ccc2ccccc2c1)NC(C)=O)[C@@H](C)O)C(=O)N[C@H]1CSSC[C@@H](C(=O)N[C@@H](Cc2c[nH]c3ccccc23)C(=O)N2CCC[C@H]2C(N)=O)NC(=O)[C@H](CC(=O)O)NC(=O)[C@H](Cc2cnc[nH]2)NC(=O)[C@H](Cc2c[nH]c3ccccc23)NC(=O)[C@H](CC(N)=O)NC(=O)[C@H](CC(N)=O)NC1=O` [compound 26, Ac-(2Nal)-T-I-C(3)-N-N-W-H-D-C(3)-W-P-CONH2] (Ac-[2Nal]TICNNWHDCWP-NH2; disulfide 4-10) it was 10 to 100 nM.
Turning to `CC[C@H](C)[C@H](NC(=O)[C@@H](NC(=O)[C@H](Cc1c[nH]c2ccccc12)NC(=O)[C@H](CCSC)NC(C)=O)[C@@H](C)O)C(=O)N[C@H]1CSSC[C@@H](C(=O)N[C@@H](Cc2c[nH]c3ccccc23)C(=O)N2CCC[C@H]2C(N)=O)NC(=O)[C@H](CC(=O)O)NC(=O)[C@H](Cc2cnc[nH]2)NC(=O)[C@H](Cc2c[nH]c3ccccc23)NC(=O)[C@H](CC(N)=O)NC(=O)[C@@H](C)NC1=O` [compound 7, Ac-M-W-T-I-C(3)-(D-Ala)-N-W-H-D-C(3)-W-P-CONH2] (Ac-MWTIC[dA]NWHDCWP-NH2; disulfide 5-11), the dissociation constant (Kd) fell in the range of 10 to 100 nM.
In the case of `CC(=O)N[C@@H](Cc1c[nH]c2ccccc12)C(=O)N[C@H](C(=O)N[C@H](C(=O)N[C@H]1CSSC[C@@H](C(=O)N[C@@H](Cc2c[nH]c3ccccc23)C(=O)N2CCC[C@H]2C(N)=O)NC(=O)[C@H](CC(=O)O)NC(=O)[C@H](CCCCNC(=O)C[C@H]2CC[C@H](NC(=O)CN3CCN(CC(=O)O)CCN(CC(=O)O)CCN(CC(=O)O)CC3)CC2)NC(=O)[C@H](Cc2ccc3ccccc3c2)NC(=O)[C@H](CC(N)=O)NC(=O)[C@H](CN2CCOCC2)NC1=O)C1CCCCC1)[C@@H](C)O` [compound 380, Ac-W-T-(Chg)-C(3)-[3-(1-morpholinyl)-Ala]-N-(2Nal)-Lys(Chx-DOTA)-D-C(3)-W-P-CONH2] (Ac-WT[Chg]C[Ala(morpholin-4-yl)]N[2Nal]K(X7)DCWP-NH2; disulfide 4-10) it was below 1 nM.
In the case of `CC[C@H](C)[C@H](NC(=O)[C@@H](NC(=O)[C@H](Cc1c[nH]c2ccccc12)NC(C)=O)[C@@H](C)O)C(=O)N[C@H]1CSSC[C@@H](C(=O)N[C@@H](Cc2c[nH]c3ccccc23)C(=O)N2CCC[C@H]2C(=O)O)NC(=O)[C@H](CC(=O)O)NC(=O)[C@H](Cc2c[nH]cn2)NC(=O)[C@H](Cc2c[nH]c3ccccc23)NC(=O)[C@H](CC(N)=O)N(C)C(=O)[C@H](CC(N)=O)NC1=O` [compound 385, Ac-W-T-I-C(3)-N-(NmeN)-W-H-D-C(3)-W-P-CONH2] (Ac-WTICN[NMeN]WHDCWP-OH; disulfide 4-10) it was 10 to 100 nM.
With `CC[C@H](C)[C@H](NC(=O)[C@@H](NC(=O)[C@H](Cc1c[nH]c2ccccc12)NC(C)=O)[C@@H](C)O)C(=O)N[C@H]1CSSC[C@@H](C(=O)N[C@@H](Cc2c[nH]c3ccccc23)C(=O)N2CCC[C@H]2C(N)=O)NC(=O)[C@H](CC(=O)O)N(C)C(=O)[C@H](Cc2cnc[nH]2)NC(=O)[C@H](Cc2c[nH]c3ccccc23)NC(=O)[C@H](CC(N)=O)NC(=O)[C@H](CC(N)=O)NC1=O` [compound 388, Ac-W-T-I-C(3)-N-N-W-H-(NmeD)-C(3)-W-P-CONH2] (Ac-WTICNNWH[NMeD]CWP-NH2; disulfide 4-10), the Kd was in the range of 100 to 300 nM.
On to `CC(=O)N[C@@H](Cc1c[nH]c2ccccc12)C(=O)N[C@H](C(=O)N[C@H](C(=O)N[C@H]1CSCSC[C@@H](C(=O)N[C@@H](Cc2c[nH]c3ccccc23)C(=O)N2CCC[C@H]2C(N)=O)NC(=O)[C@H](C)NC(=O)[C@H](CCCCNC(=O)CN2CCN(CC(=O)O)CCN(CC(=O)O)CCN(CC(=O)O)CC2)NC(=O)[C@H](Cc2ccc3ccccc3c2)NC(=O)[C@H](CC(N)=O)NC(=O)[C@H](CC2CCNCC2)NC1=O)C1CCCCC1)[C@@H](C)O` [compound 416, Ac-W-T-(Chg)-C(1)-[3-(4-piperidinyl)-Ala]-N-(2Nal)-Lys(DOTA)-(Ala)-C(1)-W-P-CONH2] (Ac-WT[Chg]C[Ala(piperidin-4-yl)]N[2Nal]K(DOTA)ACWP-NH2; linker 4-10 via CH2), for which the dissociation constant Kd was below 1 nM.
